For eleven compounds, IC50 results are on record in US11981658B2, “Substituted aminopyridine compounds as EGFR inhibitors” (YUHAN CORPORATION, priority 2021, dated 2024).

SMILES strings stand for the structures. Where two headings read alike, the source gives them in different places.

One assay concerns the target EGFR Del19/T790M/C797S (Homo sapiens, UniProt P00533, C797S/DEL746-750/T790M). Put plainly: Biochemical EGFR kinase inhibition assay (Lance Ultra TR-FRET), triple mutant del19/T790M/C797S. The method, boiled down:
(§1)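 Enzyme reactions lasted 1 hour at room temperature with test compounds between 0.003 and 10 μM, followed by 10 mM EDTA quench.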

The next assay has as its target EGFR L858R/T790M/C797S (Homo sapiens, UniProt P00533, C797S/L858R/T790M). Put plainly: Biochemical EGFR kinase inhibition assay (Lance Ultra TR-FRET), triple mutant L858R/T790M/C797S. The method in brief:
as §1
For orientation: TR-FRET usually uses a lanthanide donor and a delayed reading to cut background.

For a further assay, the target named is EGFR Del19/C797S (Homo sapiens, UniProt P00533, C797S/DEL746-750). Put plainly: Biochemical EGFR kinase inhibition assay (Lance Ultra TR-FRET), double mutant del19/C797S. The method in brief:
as §1

The next assay has as its target EGFR L858R/C797S (Homo sapiens, UniProt P00533, C797S/L858R). Put plainly: Biochemical EGFR kinase inhibition assay (Lance Ultra TR-FRET), double mutant L858R/C797S. The protocol:
Biochemical EGFR kinase assays were conducted using Lance Ultra time-resolved fluorescence resonance energy transfer (TR-FRET) technology from Perkin-Elmer. Compounds of the invention were initially diluted to 20 mM in 100% DMSO for storage and made into kinase buffer solution to create a compound concentration ranging from 0.003 μM and 10 μM.
Each kinase reactions were incubated at room temperature for 1 hour and then stopped by the addition of 4 μL of stop solution (10 mM EDTA). The specific Europium-labeled-anti-phosphopeptide antibody (PerkinElmer, AD0069) diluted in LANCE detection buffer was then added to a final concentration of 2 nM. After 60 minutes incubation at room temperature the LANCE signal was measured on an EnVision Multilabel Reader (Perkin-Elmer). Excitation wavelength was set at 320 nm and emission monitored at 615 nm (donor) and 665 nm (acceptor). The IC50 values were determined using GraphPad prism software (GraphPad Software, Inc., San Diego, CA, USA).

For the next assay, the target named is EGFR wildtype (WT) (Homo sapiens, UniProt P00533). Put plainly: Biochemical EGFR kinase inhibition assay (Lance Ultra TR-FRET), wildtype. The method, boiled down:
as §1

[1] abbreviates: IC50 Del19/T790M/C797S (nM), 100 μM ATP.
The mark [2] stands for this setting: Km ATP, read-out: IC50 Del19/T790M/C797S (nM) Km ATP.
Where [3] appears, read: IC50 L858R/T790M/C797S (nM), 100 μM ATP.
The mark [4] stands for this setting: Km ATP, read-out: IC50 L858R/T790M/C797S (nM) Km ATP.
Setting [5] is: IC50 Del19/C797S (nM), 100 μM ATP.
[6] abbreviates: Km ATP, read-out: IC50 Del19/C797S (nM) Km ATP.
[7] abbreviates: IC50 L858R/C797S (nM), 100 μM ATP.
Setting [8] is: Km ATP, read-out: IC50 L858R/C797S (nM) Km ATP.
[9] abbreviates: Km ATP, read-out: IC50 WT (nM) Km ATP.

Sequence of EGFR L858R/T790M/C797S (P00533 25-1210 T790M/C797S/L858R): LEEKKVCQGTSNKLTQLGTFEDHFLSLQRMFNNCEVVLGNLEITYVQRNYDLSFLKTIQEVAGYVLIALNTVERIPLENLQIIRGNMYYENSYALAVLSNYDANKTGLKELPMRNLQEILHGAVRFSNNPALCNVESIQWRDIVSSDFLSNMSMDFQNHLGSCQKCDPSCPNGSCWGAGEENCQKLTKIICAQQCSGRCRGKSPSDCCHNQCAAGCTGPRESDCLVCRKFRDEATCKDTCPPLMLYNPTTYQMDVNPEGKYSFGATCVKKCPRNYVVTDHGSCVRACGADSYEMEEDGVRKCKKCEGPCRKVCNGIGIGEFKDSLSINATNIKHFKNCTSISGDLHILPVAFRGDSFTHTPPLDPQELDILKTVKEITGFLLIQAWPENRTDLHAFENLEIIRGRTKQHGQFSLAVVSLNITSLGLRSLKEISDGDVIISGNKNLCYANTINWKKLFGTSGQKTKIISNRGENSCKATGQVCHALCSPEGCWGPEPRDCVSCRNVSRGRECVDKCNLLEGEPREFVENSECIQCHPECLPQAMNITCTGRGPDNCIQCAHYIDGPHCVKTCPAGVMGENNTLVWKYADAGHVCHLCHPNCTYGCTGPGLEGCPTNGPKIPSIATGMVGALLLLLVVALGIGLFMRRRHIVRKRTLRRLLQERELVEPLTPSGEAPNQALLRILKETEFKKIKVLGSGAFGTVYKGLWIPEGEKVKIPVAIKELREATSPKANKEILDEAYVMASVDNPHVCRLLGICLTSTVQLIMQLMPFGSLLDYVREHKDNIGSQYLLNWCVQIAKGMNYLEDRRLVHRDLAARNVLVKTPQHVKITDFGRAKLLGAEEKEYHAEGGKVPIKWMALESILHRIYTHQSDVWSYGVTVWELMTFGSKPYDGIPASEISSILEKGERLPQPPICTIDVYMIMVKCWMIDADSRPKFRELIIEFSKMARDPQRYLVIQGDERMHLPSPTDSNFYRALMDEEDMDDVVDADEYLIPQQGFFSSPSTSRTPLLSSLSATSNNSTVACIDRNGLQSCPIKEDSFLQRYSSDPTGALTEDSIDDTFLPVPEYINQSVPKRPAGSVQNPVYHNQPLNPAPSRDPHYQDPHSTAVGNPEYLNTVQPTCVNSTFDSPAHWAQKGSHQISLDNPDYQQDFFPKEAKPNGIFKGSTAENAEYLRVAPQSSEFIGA
Sequence of EGFR wildtype (WT) (P00533 25-1210): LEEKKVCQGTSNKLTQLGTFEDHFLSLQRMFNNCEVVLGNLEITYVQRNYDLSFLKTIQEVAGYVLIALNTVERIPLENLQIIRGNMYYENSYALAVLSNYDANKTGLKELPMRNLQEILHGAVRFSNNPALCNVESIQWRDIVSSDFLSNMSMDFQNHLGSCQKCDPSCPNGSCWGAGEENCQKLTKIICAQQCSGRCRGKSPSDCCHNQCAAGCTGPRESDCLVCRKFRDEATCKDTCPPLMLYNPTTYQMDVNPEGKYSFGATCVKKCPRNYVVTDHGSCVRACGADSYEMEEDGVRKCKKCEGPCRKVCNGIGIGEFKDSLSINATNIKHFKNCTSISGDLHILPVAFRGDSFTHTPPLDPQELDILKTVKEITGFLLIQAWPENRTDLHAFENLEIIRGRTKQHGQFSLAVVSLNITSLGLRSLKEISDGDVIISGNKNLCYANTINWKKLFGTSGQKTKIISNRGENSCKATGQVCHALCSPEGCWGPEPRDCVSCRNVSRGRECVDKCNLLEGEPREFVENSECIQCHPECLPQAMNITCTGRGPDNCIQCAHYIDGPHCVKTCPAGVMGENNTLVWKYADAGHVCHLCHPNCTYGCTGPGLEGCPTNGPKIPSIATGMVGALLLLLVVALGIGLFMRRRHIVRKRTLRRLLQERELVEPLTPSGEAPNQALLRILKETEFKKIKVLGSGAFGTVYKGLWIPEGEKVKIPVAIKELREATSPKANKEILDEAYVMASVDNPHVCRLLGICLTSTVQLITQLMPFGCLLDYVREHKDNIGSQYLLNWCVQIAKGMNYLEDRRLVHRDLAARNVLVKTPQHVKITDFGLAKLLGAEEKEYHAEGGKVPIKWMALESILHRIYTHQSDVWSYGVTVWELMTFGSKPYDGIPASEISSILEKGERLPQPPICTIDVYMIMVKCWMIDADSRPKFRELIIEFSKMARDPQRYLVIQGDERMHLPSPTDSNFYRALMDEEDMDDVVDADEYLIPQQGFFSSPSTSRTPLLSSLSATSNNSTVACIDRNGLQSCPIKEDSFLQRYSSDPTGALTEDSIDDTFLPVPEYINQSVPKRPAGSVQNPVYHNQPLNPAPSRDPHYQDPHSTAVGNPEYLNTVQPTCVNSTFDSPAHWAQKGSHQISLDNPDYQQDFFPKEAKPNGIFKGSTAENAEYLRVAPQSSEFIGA
Sequence of EGFR Del19/T790M/C797S (P00533 with tags, fused parts or gaps DEL746-750/T790M/C797S): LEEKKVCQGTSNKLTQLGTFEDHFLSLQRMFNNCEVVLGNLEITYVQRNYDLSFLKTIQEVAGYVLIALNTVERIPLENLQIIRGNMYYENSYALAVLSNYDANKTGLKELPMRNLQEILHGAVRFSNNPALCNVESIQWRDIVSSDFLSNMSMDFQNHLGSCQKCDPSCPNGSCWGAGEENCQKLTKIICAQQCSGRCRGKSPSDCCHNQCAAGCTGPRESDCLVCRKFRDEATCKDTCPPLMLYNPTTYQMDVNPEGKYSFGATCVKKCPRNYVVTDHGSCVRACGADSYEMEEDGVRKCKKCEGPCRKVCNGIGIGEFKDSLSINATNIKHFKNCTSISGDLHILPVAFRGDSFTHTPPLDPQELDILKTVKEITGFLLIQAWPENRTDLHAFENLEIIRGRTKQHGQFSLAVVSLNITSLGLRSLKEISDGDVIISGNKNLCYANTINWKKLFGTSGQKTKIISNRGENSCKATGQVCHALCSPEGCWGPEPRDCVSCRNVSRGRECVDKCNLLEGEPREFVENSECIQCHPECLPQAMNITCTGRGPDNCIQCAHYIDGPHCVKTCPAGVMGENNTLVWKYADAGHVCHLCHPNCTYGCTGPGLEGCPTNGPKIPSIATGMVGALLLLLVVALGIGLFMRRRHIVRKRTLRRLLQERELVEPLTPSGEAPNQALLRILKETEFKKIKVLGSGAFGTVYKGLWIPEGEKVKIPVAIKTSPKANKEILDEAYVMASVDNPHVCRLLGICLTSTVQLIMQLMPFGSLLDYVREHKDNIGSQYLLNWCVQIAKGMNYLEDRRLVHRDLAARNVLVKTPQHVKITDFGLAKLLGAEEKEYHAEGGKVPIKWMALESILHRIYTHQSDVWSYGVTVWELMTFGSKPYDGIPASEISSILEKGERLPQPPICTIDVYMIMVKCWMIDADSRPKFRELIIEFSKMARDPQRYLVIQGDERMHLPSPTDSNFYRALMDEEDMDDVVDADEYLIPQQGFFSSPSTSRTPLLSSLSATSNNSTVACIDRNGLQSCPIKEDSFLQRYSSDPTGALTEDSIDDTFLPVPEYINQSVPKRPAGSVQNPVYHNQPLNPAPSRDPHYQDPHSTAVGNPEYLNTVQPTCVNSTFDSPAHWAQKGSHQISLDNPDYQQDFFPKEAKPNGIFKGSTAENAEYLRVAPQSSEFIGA
Sequence of EGFR Del19/C797S (P00533 with tags, fused parts or gaps DEL746-750/C797S): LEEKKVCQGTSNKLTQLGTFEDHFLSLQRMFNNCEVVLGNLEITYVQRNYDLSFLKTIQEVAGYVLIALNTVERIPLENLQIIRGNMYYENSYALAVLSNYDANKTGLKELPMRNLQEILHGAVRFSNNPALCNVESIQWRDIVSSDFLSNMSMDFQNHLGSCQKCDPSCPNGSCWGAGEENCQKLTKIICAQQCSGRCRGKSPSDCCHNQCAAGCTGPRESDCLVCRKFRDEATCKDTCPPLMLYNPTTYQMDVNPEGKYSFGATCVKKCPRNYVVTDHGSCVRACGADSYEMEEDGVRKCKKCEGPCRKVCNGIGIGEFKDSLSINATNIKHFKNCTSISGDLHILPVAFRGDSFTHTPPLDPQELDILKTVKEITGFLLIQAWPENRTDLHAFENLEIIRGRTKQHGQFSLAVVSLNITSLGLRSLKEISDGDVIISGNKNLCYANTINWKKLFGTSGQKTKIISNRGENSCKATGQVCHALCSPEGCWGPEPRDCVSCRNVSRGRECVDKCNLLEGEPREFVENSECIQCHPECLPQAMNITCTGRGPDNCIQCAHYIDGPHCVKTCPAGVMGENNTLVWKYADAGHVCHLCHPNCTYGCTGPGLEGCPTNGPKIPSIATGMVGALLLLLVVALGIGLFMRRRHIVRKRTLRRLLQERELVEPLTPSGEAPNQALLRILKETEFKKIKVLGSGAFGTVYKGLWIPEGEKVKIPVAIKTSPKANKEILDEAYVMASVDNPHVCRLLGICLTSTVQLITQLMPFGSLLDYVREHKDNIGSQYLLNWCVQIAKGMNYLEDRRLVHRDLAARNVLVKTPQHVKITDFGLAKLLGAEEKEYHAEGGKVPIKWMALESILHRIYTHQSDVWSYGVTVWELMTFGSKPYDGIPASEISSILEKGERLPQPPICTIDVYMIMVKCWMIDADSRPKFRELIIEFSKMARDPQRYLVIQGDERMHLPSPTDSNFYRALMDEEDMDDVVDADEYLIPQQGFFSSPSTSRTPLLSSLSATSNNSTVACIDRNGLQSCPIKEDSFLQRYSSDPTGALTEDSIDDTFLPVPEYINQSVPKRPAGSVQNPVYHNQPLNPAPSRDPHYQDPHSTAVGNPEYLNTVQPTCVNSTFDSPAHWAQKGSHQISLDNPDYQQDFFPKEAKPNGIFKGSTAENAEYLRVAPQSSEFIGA

As to `CC1(CO)CCN(c2cc(Nc3ccnc(-c4cnn(S(=O)(=O)C5CC5)c4)n3)ncc2C#Cc2cnn(CC3CC3)c2)CC1` [Example 48, (1-(5-((1-(Cyclopropylmethyl)-1H-pyrazol-4-yl)ethynyl)-2-((2-(1-(cyclopropylsulfonyl)-1H-pyrazol-4-yl)pyrimidin-4-yl)amino)pyridin-4-yl)-4-methylpiperidin-4-yl)methanol], the IC50 came to 5.3 nM at EGFR Del19/T790M/C797S (setting [1]); 4 nM on EGFR Del19/T790M/C797S (setting [2]); 9.1 nM at EGFR L858R/T790M/C797S (setting [3]); 2.3 nM at EGFR L858R/T790M/C797S (setting [4]); 2.2 nM against EGFR Del19/C797S (setting [5]); 4.3 nM at EGFR Del19/C797S (setting [6]). Further, the IC50 on EGFR L858R/C797S (setting [7]) turned out to be 15.9 nM; on EGFR L858R/C797S (setting [8]), 7.2 nM; at EGFR wildtype (WT) (IC50 WT (nM), 100 μM ATP), 2910 nM; on EGFR wildtype (WT) (setting [9]) it was 38.2 nM.

Turning to `Cn1cc(C#Cc2cnc(Nc3ccnc(-c4cnn(S(=O)(=O)C5CC5)c4)n3)cc2N2CCC(C(F)(F)F)CC2)cn1` [Example 65, 2-(1-(Cyclopropylsulfonyl)-1H-pyrazol-4-yl)-N-(5-((1-methyl-1H-pyrazol-4-yl)ethynyl)-4-(4-(trifluoromethyl)piperidin-1-yl)pyridin-2-yl)pyrimidin-4-amine], the IC50 was 8.2 nM at EGFR Del19/T790M/C797S (setting [1]); 39.2 nM on EGFR L858R/T790M/C797S (setting [3]); 338 nM against EGFR Del19/C797S (setting [5]); 604 nM against EGFR L858R/C797S (setting [7]); more than 10000 nM against EGFR wildtype (WT) (IC50 WT (nM), 100 μM ATP).

As to `CN1CCN(C2CCN(c3cc(Nc4ccnc(-c5cnn(S(=O)(=O)C6CC6)c5)n4)ncc3C#Cc3ccsc3)CC2)CC1` [Example 226, 2-(1-(Cyclopropylsulfonyl)-1H-pyrazol-4-yl)-N-(4-(4-(4-methylpiperazin-1-yl)piperidin-1-yl)-5-(thiophen-3-ylethynyl)pyridin-2-yl)pyrimidin-4-amine], the IC50 was 1.1 nM at EGFR Del19/T790M/C797S (setting [1]); 1.1 nM at EGFR L858R/T790M/C797S (setting [3]); 5.1 nM against EGFR Del19/C797S (setting [5]); 43.4 nM against EGFR L858R/C797S (setting [7]); more than 10000 nM against EGFR wildtype (WT) (IC50 WT (nM), 100 μM ATP).

As to `Cn1cc(C#Cc2cnc(Nc3ccnc(-c4cnn(S(=O)(=O)C5CC5)c4)n3)cc2N2CCC(O)CC2)c(C(F)(F)F)n1` [Example 89, 1-(2-((2-(1-(Cyclopropylsulfonyl)-1H-pyrazol-4-yl)pyrimidin-4-yl)amino)-5-((1-methyl-3-(trifluoromethyl)-1H-pyrazol-4-yl)ethynyl)pyridin-4-yl)piperidin-4-ol], the IC50 against EGFR Del19/T790M/C797S (setting [1]) is 4.3 nM; against EGFR L858R/T790M/C797S (setting [3]), 19.6 nM; against EGFR Del19/C797S (setting [5]), 63.8 nM; on EGFR L858R/C797S (setting [7]), 183 nM; against EGFR wildtype (WT) (IC50 WT (nM), 100 μM ATP), more than 10000 nM.

For the compound `Cn1cc(C#Cc2cnc(Nc3ccnc(-c4cnn(S(=O)(=O)C5CC5)c4)n3)cc2N2CCC(N3CC(F)(F)C3)CC2)cn1` [Example 128, 2-(1-(Cyclopropylsulfonyl)-1H-pyrazol-4-yl)-N-(4-(4-(3,3-difluoroazetidin-1-yl)piperidin-1-yl)-5-((1-methyl-1H-pyrazol-4-yl)ethynyl)pyridin-2-yl)pyrimidin-4-amine], the IC50 against EGFR Del19/T790M/C797S (setting [1]) is 7.1 nM; against EGFR L858R/T790M/C797S (setting [3]), 4.8 nM; on EGFR Del19/C797S (setting [5]), 29.5 nM; against EGFR L858R/C797S (setting [7]) it was 73 nM; on EGFR wildtype (WT) (IC50 WT (nM), 100 μM ATP) it was more than 10000 nM.

On to `CC1OCCC1C#Cc1cnc(Nc2ccnc(-c3cnn(S(=O)(=O)C4CC4)c3)n2)cc1NC1CCC(O)CC1` (stereo not drawn) [Example 433, (1 s,4s)-4-((2-((2-(1-(cyclopropylsulfonyl)-1H-pyrazol-4-yl)pyrimidin-4-yl)amino)-5-((2-methyltetrahydrofuran-3-yl)ethynyl)pyridin-4-yl)amino)cyclohexan-1-ol], for which the IC50 at EGFR Del19/T790M/C797S (setting [1]) is 0.5 nM; on EGFR Del19/T790M/C797S (Km ATP, read-out: IC50 Del19/T790M/C797S (nM), Km ATP), 0.4 nM; at EGFR L858R/T790M/C797S (setting [3]), 0.7 nM; on EGFR L858R/T790M/C797S (Km ATP, read-out: IC50 L858R/T790M/C797S (nM), Km ATP) it was 0.2 nM; at EGFR Del19/C797S (setting [5]) it was 3.2 nM; at EGFR Del19/C797S (Km ATP, read-out: IC50 Del19/C797S (nM), Km ATP), 1 nM. The IC50 was 90.8 nM at EGFR L858R/C797S (setting [7]); 4 nM on EGFR L858R/C797S (Km ATP, read-out: IC50 L858R/C797S (nM), Km ATP); 8720 nM against EGFR wildtype (WT) (IC50 WT (nM), 100 μM ATP); 7.7 nM at EGFR wildtype (WT) (Km ATP, read-out: IC50 WT (nM), Km ATP).

Take `Cn1cc(C#Cc2cnc(Nc3ccnc(-c4cnn(S(=O)(=O)C5CC5)c4)n3)cc2N[C@H]2CC[C@@H](O)CC2)c(C(F)(F)F)n1` [Example 92, (1s,4s)-4-((2-((2-(1-(Cyclopropylsulfonyl)-1H-pyrazol-4-yl)pyrimidin-4-yl)amino)-5-((1-methyl-3-(trifluoromethyl)-1H-pyrazol-4-yl)ethynyl)pyridin-4-yl)amino)cyclohexan-1-ol]: the IC50 against EGFR Del19/T790M/C797S (setting [1]) was 5.5 nM; against EGFR L858R/T790M/C797S (setting [3]), 11.3 nM; against EGFR Del19/C797S (setting [5]), 67.5 nM; against EGFR L858R/C797S (setting [7]) it was 80.7 nM; against EGFR wildtype (WT) (IC50 WT (nM), 100 μM ATP), more than 10000 nM.

Consider `CC1(CO)CCN(c2cc(Nc3ccnc(-c4cnn(S(=O)(=O)C5CC5)c4)n3)ncc2C#CCCO)CC1` [Example 274, 4-(6-((2-(1-(Cyclopropylsulfonyl)-1H-pyrazol-4-yl)pyrimidin-4-yl)amino)-4-(4-(hydroxymethyl)-4-methylpiperidin-1-yl)pyridin-3-yl)but-3-yn-1-ol], for which the IC50 on EGFR Del19/T790M/C797S (ATP at Km, read-out: IC50 Del19/T790M/C797S (nM), Km ATP) stood at 0.1 nM; on EGFR Del19/T790M/C797S (setting [1]), 0.2 nM; on EGFR L858R/T790M/C797S (ATP at Km, read-out: IC50 L858R/T790M/C797S (nM), Km ATP), 0.1 nM; at EGFR L858R/T790M/C797S (setting [3]), 0.2 nM; at EGFR Del19/C797S (ATP at Km, read-out: IC50 Del19/C797S (nM), Km ATP) it was 0.4 nM; on EGFR Del19/C797S (setting [5]), 0.6 nM. Moreover, the IC50 on EGFR L858R/C797S (ATP at Km, read-out: IC50 L858R/C797S (nM), Km ATP) stood at 1 nM; against EGFR L858R/C797S (setting [7]), 10.8 nM; on EGFR wildtype (WT) (ATP at Km, read-out: IC50 WT (nM), Km ATP), 4.4 nM; against EGFR wildtype (WT) (IC50 WT (nM), 100 μM ATP) it was 1890 nM.

For the compound `CN(C)CCCn1cc(C#Cc2cnc(Nc3ccnc(-c4cnn(S(=O)(=O)C5CC5)c4)n3)cc2N[C@H]2CC[C@@H](O)CC2)cn1` [Example 123, (1s,4s)-4-((2-((2-(1-(Cyclopropylsulfonyl)-1H-pyrazol-4-yl)pyrimidin-4-yl)amino)-5-((1-(3-(dimethylamino)propyl)-1H-pyrazol-4-yl)ethynyl)pyridin-4-yl)amino)cyclohexan-1-ol], the IC50 on EGFR Del19/T790M/C797S (setting [1]) was found to be 0.4 nM; at EGFR Del19/T790M/C797S (setting [2]) it was 0.4 nM; on EGFR L858R/T790M/C797S (setting [3]), 0.4 nM; at EGFR L858R/T790M/C797S (setting [4]) it was 0.1 nM; at EGFR Del19/C797S (setting [5]) it was 0.6 nM; on EGFR Del19/C797S (setting [6]) it was 0.3 nM. Further, the IC50 at EGFR L858R/C797S (setting [7]) was 4.3 nM; on EGFR L858R/C797S (setting [8]), 0.3 nM; at EGFR wildtype (WT) (IC50 WT (nM), 100 μM ATP), 1080 nM; on EGFR wildtype (WT) (setting [9]), 3.6 nM.

Turning to `CN1CCC2(CC1)CCN(c1cc(Nc3ccnc(-c4cnn(S(=O)(=O)C5CC5)c4)n3)ncc1C#Cc1cnn(CC3CC3)c1)CC2` [Example 320, N-(5-((1-(Cyclopropylmethyl)-1H-pyrazol-4-yl)ethynyl)-4-(9-methyl-3,9-diazaspiro[5.5]undecan-3-yl)pyridin-2-yl)-2-(1-(cyclopropylsulfonyl)-1H-pyrazol-4-yl)pyrimidin-4-amine], the IC50 came out at 1 nM on EGFR Del19/T790M/C797S (setting [1]); 0.8 nM against EGFR L858R/T790M/C797S (setting [3]); 10.5 nM against EGFR Del19/C797S (setting [5]); 44 nM against EGFR L858R/C797S (setting [7]); 5670 nM on EGFR wildtype (WT) (IC50 WT (nM), 100 μM ATP).

Turning to `CC(C)(O)C1CN(c2cc(Nc3ccnc(-c4cnn(S(=O)(=O)C5CC5)c4)n3)ncc2C#Cc2cnn(CCF)c2)C1` [Example 36, 2-(1-(2-((2-(1-(Cyclopropylsulfonyl)-1H-pyrazol-4-yl)pyrimidin-4-yl)amino)-5-((1-(2-fluoroethyl)-1H-pyrazol-4-yl)ethynyl)pyridin-4-yl)azetidin-3-yl)propan-2-ol], the IC50 is 2.1 nM on EGFR Del19/T790M/C797S (setting [1]); 3 nM against EGFR L858R/T790M/C797S (setting [3]); 25.5 nM against EGFR Del19/C797S (setting [5]); 100 nM against EGFR L858R/C797S (setting [7]); more than 10000 nM against EGFR wildtype (WT) (IC50 WT (nM), 100 μM ATP).
